Data taken from the supplement of paper PMC8633005.

Tests used:
Assay in all cases: drug sensitivity score (DSS) (DSS (unitless, 0-50 scale)); higher = more sensitive (stronger viability inhibition); extreme values may be limits of the assay
Details in all cases: 72 h; culture: 2D
SK-MEL-2 = test system: SK-MEL-2
Method in brief: (§1)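 Drug sensitivity scores, modified area-under-curve measures, were derived from dose-response curves fitted in the in-house Breeze software. The curves came from melanoma cell lines and patient-derived melanoma cultures (1000–1500 cells per well) grown in 2D in 384-well plates holding a 527-compound oncology library. Each compound was dissolved in DMSO or water and tested at five concentrations across a 10,000-fold range. Viability was read by CellTiter-Glo luminescence after 72 h at 37 °C.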

Bowes = test system: Bowes
Method in brief: as §1

WM165 = test system: WM165
Method in brief: as §1

FM-MEL-3 = test system: FM-MEL-3
Method in brief: as §1

WM852 = test system: WM852
Method in brief: as §1

SK-MEL-28 = test system: SK-MEL-28
Method in brief: as §1

FM-MEL-2 = test system: FM-MEL-2
Method in brief: as §1

FM-MEL-6 = test system: FM-MEL-6
Method in brief: as §1

SMILES | drug sensitivity score (SK-MEL-2) | drug sensitivity score (Bowes) | drug sensitivity score (WM165) | drug sensitivity score (FM-MEL-3) | drug sensitivity score (WM852) | drug sensitivity score (SK-MEL-28) | drug sensitivity score (FM-MEL-2) | drug sensitivity score (FM-MEL-6)
CO[C@H]1C[C@@H]2CC[C@@H](C)[C@@](O)(O2)C(=O)C(=O)N2CCCC[C@H]2C(=O)O[C@H]([C@H](C)C[C@@H]2CC[C@@H](OC(=O)C(C)(CO)CO)[C@H](OC)C2)CC(=O)[C@H](C)/C=C(\C)[C@@H](O)[C@@H](OC)C(=O)[C@H](C)C[C@H](C)/C=C/C=C/C=C/1C [Temsirolimus] | 0 | 0 | 6 | 0 | 0 | 2.5 | 4 | 4.4
COc1cc([C@@H]2c3cc4c(cc3[C@@H](O[C@@H]3O[C@@H]5CO[C@@H](c6cccs6)O[C@H]5[C@H](O)[C@H]3O)[C@H]3COC(=O)[C@H]23)OCO4)cc(OC)c1O [Teniposide] | 0 | 0 | 0 | 0 | 0 | 0 | 0 | 0
CN1CCC(COc2cnc(-c3cccc(Cn4nc(-c5cccc(C#N)c5)ccc4=O)c3)nc2)CC1 [Tepotinib] | 0 | 0 | 0 | 0 | 0 | 0 | 0 | 0
COc1cc2c(Nc3ccc(Cl)c(Cl)c3F)ncnc2cc1OC[C@@H]1C[C@@H]2CN(C)C[C@@H]2C1 [Tesevatinib] | 0 | 1.8 | 0.1 | 0.8 | 0 | 0.1 | 0.1 | 0.3
O=C1CCC(N2C(=O)c3ccccc3C2=O)C(=O)N1 (stereo unspecified) [Thalidomide] | 0 | 0 | 0 | 0 | 0 | 0 | 0 | 0
Nc1nc2[nH]cnc2c(=S)[nH]1 [Thioguanine] | 3.5 | 8.5 | 12.8 | 0 | 6.8 | 4.3 | 5.4 | 2.6
O=c1sn(-c2cccc3ccccc23)c(=O)n1Cc1ccccc1 [Tideglusib] | 0 | 0 | 0 | 0 | 0 | 0 | 0 | 0
Cn1cncc1[C@@](N)(c1ccc(Cl)cc1)c1ccc2c(c1)c(-c1cccc(Cl)c1)cc(=O)n2C [Tipifarnib] | 3.6 | 21.1 | 10.4 | 11.2 | 3.4 | 5 | 7.4 | 6.2
CC#CC(=O)N1CC[C@@H](n2c(=O)n(-c3ccc(Oc4ccccc4)cc3)c3c(N)ncnc32)C1 [Tirabrutinib] | 0 | 2 | 0 | 0 | 0 | 0 | 0 | 0
O=C1NC(=O)[C@@H](c2cn3c4c(cccc24)CCC3)[C@@H]1c1c[nH]c2ccccc12 [Tivantinib] | 3.8 | 3.6 | 3.1 | 2.3 | 3.1 | 2.1 | 1.9 | 3.2
COc1cc2nccc(Oc3ccc(NC(=O)Nc4cc(C)on4)c(Cl)c3)c2cc1OC [Tivozanib] | 0 | 2.8 | 3.1 | 4.8 | 1.1 | 3.1 | 3.4 | 0.5
C[C@@H]1CCN(C(=O)CC#N)C[C@@H]1N(C)c1ncnc2[nH]ccc12 [Tofacitinib] | 0 | 0 | 0 | 0 | 0 | 0 | 0 | 0
CC[C@@]1(O)C(=O)OCc2c1cc1n(c2=O)Cc2cc3c(CN(C)C)c(O)ccc3nc2-1 [Topotecan] | 8.2 | 6.8 | 25.3 | 11 | 1.4 | 8.1 | 6.1 | 8.1
CN(C)CCOc1ccc(/C(=C(/CCCl)c2ccccc2)c2ccccc2)cc1 [Toremifene] | 1.6 | 1.1 | 4.3 | 7.8 | 3.4 | 4.4 | 5.8 | 6
CC(C)C[C@@H](C(=O)N[C@H](C(=O)OC1CCCC1)c1ccccc1)[C@H](O)C(=O)NO [Tosedostat] | 5.3 | 1.4 | 6.8 | 6.3 | 0.7 | 6.7 | 6.3 | 7.9
Cc1cc(Nc2cc(N3CCN(C)CC3)nc(Sc3ccc(NC(=O)C4CC4)cc3)n2)n[nH]1 [Tozasertib] | 2.8 | 11.7 | 12.8 | 4.5 | 3.5 | 5.1 | 1.9 | 2.7
CC1=C(/C=C/C(C)=C/C=C/C(C)=C/C(=O)O)C(C)(C)CCC1 [Tretinoin] | 0 | 5.7 | 0 | 0.7 | 0 | 0 | 0 | 0.8
NC(=S)N/N=C/c1ncccc1N [Triapine] | 0 | 1.9 | 5.3 | 0.6 | 0 | 2.5 | 0.4 | 3.2
O=c1[nH]c(=O)n([C@H]2C[C@H](O)[C@@H](CO)O2)cc1C(F)(F)F [Trifluridine] | 0 | 0 | 3.5 | 0.1 | 0 | 2.7 | 0 | 0.8
O=C(CCCCCCC(=O)Nc1ccc([C@H]2O[C@@H](CSc3nc(-c4ccccc4)c(-c4ccccc4)o3)C[C@@H](c3ccc(CO)cc3)O2)cc1)NO [Tubacin] | 0.8 | 4.9 | 4.7 | 0 | 3.9 | 0 | 0.9 | 0.2
CN1CCc2c(c3ccccc3n2Cc2ccc(C(=O)NO)cc2)C1 [Tubastatin A] | 1 | 2 | 2.2 | 0.6 | 0 | 1.3 | 0.6 | 0

SMILES | drug sensitivity score (SK-MEL-2) | drug sensitivity score (Bowes) | drug sensitivity score (WM165) | drug sensitivity score (FM-MEL-3) | drug sensitivity score (WM852) | drug sensitivity score (SK-MEL-28) | drug sensitivity score (FM-MEL-2) | drug sensitivity score (FM-MEL-6)
Cc1cc(Nc2ncnc3ccc(NC4=NC(C)(C)CO4)cc23)ccc1Oc1ccn2ncnc2c1 [Tucatinib] | 0 | 0 | 0 | 0 | 0 | 0 | 0.4 | 0
Nc1cc(F)ccc1NC(=O)c1ccc(CNC(=O)/C=C/c2cccnc2)cc1 [Tucidinostat] | 5 | 1.9 | 7.8 | 7.7 | 0 | 5.6 | 5.1 | 7.2
CN[C@@H]1C[C@H]2O[C@@](C)([C@@H]1OC)n1c3ccccc3c3c4c(c5c6ccccc6n2c5c31)C(=O)N[C@H]4O [UCN-01] | 16.2 | 17.5 | 23.5 | 24.7 | 19.9 | 13.4 | 13.5 | 14.5
COC(=O)c1ccc2c(c1)[nH]c1ncnc(NCCCN3CCCCC3)c12 [UM729] | 0 | 0 | 0 | 2.5 | 0 | 0.6 | 1 | 0
COc1cc2c(NC3CCN(C(C)C)CC3)nc(C3CCCCC3)nc2cc1OCCCN1CCCC1 [UNC0638] | 5.9 | 6.6 | 5.8 | 4.4 | 5.9 | 5.8 | 6.9 | 2.8
COc1cc2c(NC3CCN(C(C)C)CC3)nc(N3CCC(F)(F)CC3)nc2cc1OCCCN1CCCC1 [UNC0642] | 4.1 | 4 | 4.5 | 0.7 | 5.1 | 2 | 4.5 | 2.5
O=C(c1ccc(C(=O)N2CCC(N3CCCC3)CC2)c(Nc2ccccc2)c1)N1CCC(N2CCCC2)CC1 [UNC1215] | 0 | 0 | 0 | 0 | 0 | 0 | 0 | 0
CCCCNc1ncc(C(=O)NCc2ccc(-n3ccnc3)cc2)c(NC2CCC(O)CC2)n1 (stereo unspecified) [UNC2881] | 0 | 0 | 0 | 0 | 0 | 0 | 2.2 | 0
NC(=O)c1cccc(-c2cccc(OC(=O)NC3CCCCC3)c2)c1 [URB597] | 0 | 0 | 0 | 0 | 0 | 0 | 0 | 0
CC[C@@H]1CN(C(=O)NCC(F)(F)F)C[C@@H]1c1cnc2cnc3[nH]ccc3n12 [Upadacitinib] | 0 | 0 | 0 | 3.1 | 2.1 | 0.3 | 3.6 | 3.6
Cn1ncc(Cl)c1-c1cc(C(=O)N[C@H](CN)Cc2ccc(F)c(F)c2)oc1Cl [Uprosertib] | 0 | 0 | 1.1 | 0 | 0 | 0.5 | 1.2 | 0
CS(=O)(=O)c1ccc(-c2cnc(N)c(C(=O)Nc3ccccc3)n2)cc1 [VE-821] | 0 | 3.1 | 0 | 1.6 | 2.6 | 0 | 0 | 0
O=C(O)CC1CC(c2ccccc2)=NO1 (stereo unspecified) [VGX-1027] | 0 | 0 | 0 | 0 | 0 | 0 | 0 | 0
C=CC(=O)N1CC/C(=C\c2ccc(F)c([N+](=O)[O-])c2)C(=O)/C(=C/c2ccc(F)c([N+](=O)[O-])c2)C1 [VLX1570] | 14.9 | 23.8 | 24 | 18.6 | 18.8 | 15.8 | 7.8 | 2.4
CNC(=O)c1ccccc1Nc1cc(Nc2ccc(N3CCOCC3)cc2OC)ncc1C(F)(F)F [VS-4718] | 6.3 | 3 | 7.8 | 12.5 | 6.7 | 4.5 | 9.2 | 7.2
CCCC(CCC)C(=O)O [Valproic acid] | 0 | 0 | 0 | 0.3 | 0 | 0 | 0.2 | 0
CCCCC(=O)OCC(=O)[C@]1(O)Cc2c(O)c3c(c(O)c2[C@@H](O[C@H]2C[C@H](NC(=O)C(F)(F)F)[C@H](O)[C@H](C)O2)C1)C(=O)c1c(OC)cccc1C3=O [Valrubicin] | 8.5 | 6.4 | 21.5 | 7.2 | 5.1 | 8.3 | 6.8 | 9.2
COc1cc2/c(=N/c3ccc(Br)cc3F)nc[nH]c2cc1OCC1CCN(C)CC1 [Vandetanib] | 0 | 1.3 | 0 | 0 | 0 | 0.4 | 0 | 0.2
CCc1c(C(=O)C(N)=O)c2c(OCC(=O)O)cccc2n1Cc1ccccc1 [Varespladib] | 0 | 0 | 0 | 0 | 0 | 0 | 0 | 0
C[C@@H]1COC(Nc2ccc3ncnc(Nc4ccc(OCc5nccs5)c(Cl)c4)c3c2)=N1 [Varlitinib] | 0 | 0 | 0 | 2.2 | 1.7 | 0.3 | 5.7 | 0
Clc1ccc(Nc2nnc(Cc3ccncc3)c3ccccc23)cc1 [Vatalanib] | 0 | 0 | 0 | 0 | 0 | 0 | 0 | 0
